In patent US20260078335A1, “MICROBIAL ENHANCED COMPOSITIONS COMPRISING SURFACTANT BLENDS WHICH OVERCOME ANTAGONISTIC SURFACTANT INCOMPATIBILITY” (Stepan Company, priority 2023, published 2026):
Where two headings read alike, the source gives them in different places.

Assays:
Format in all cases: cell-based
[1] = test system: pathogenic bacteria and fungi; experiment: preservative screening test, overall result
Experimental: (§1) A preservative screening study was performed to determine a sufficient amount of preservative to include in selected MEC formulations to provide efficacy against pathogenic bacteria and fungi. The base formulations used in the study were a formulation similar to Composition A from Example 5, but without the spores, and a formulation similar to the Example 14 formulation, but without the spores and 2-phenoxyethanol. Test formulations were prepared by adding different preservatives in different amounts to the base formulations. Each test formulation was tested for efficacy against pathogenic organisms using a preservative screening test. For the screening test, microorganisms are grown separately according to industry standards described in PCPC Test Method M-7 “A Rapid Method for Preservation Testing of Water-Miscible Personal Care Products”, and combined as an inoculum challenge prior to introduction to the formulation test sample. The inoculum is added to each test formulation for predetermined time points, and after appropriate nutrition, the test formulations are evaluated for remaining live count. Reduction of live count is calculated against a control, and a sample showing sufficient percent reduction is accepted as an effectively preserved formulation. Table 4 provides the details of the preservative and amount used in each test formulation and the results of the screen testing.

pathogenic bacteria = experiment: preservative screening test, bacterial; settings: reduction of live count
Experimental: as §1

fungi = experiment: preservative screening test, fungal; settings: reduction of live count
Experimental: A preservative screening study was performed to determine a sufficient amount of preservative to include in selected MEC formulations to provide efficacy against pathogenic bacteria and fungi. […] Test formulations were prepared by adding different preservatives in different amounts to the base formulations. Each test formulation was tested for efficacy against pathogenic organisms using a preservative screening test. For the screening test, microorganisms are grown separately according to industry standards described in PCPC Test Method M-7 “A Rapid Method for Preservation Testing of Water-Miscible Personal Care Products”, and combined as an inoculum challenge prior to introduction to the formulation test sample. The inoculum is added to each test formulation for predetermined time points, and after appropriate nutrition, the test formulations are evaluated for remaining live count. Reduction of live count is calculated against a control, and a sample showing sufficient percent reduction is accepted as an effectively preserved formulation.

[2] = test system: beneficial microorganisms; experiment: compatibility with beneficial microorganisms (description, test not specified); settings: stated in the description, no test details
Experimental: Incompatibility between a surfactant and a beneficial microorganism has been investigated in various ways, such as a standard Zone of Inhibition test, a standard agar plating test, or a standard resazurin (7-hydroxy-10-oxidophenoxazin-10-ium-3-one, sodium) (a blue fluorogenic dye) compatibility assay. In a Zone of Inhibition test, microorganisms are grown, cultured, diluted down to target levels, and then applied to a Petri dish containing agar nutrients. Test samples containing the surfactant of interest are diluted and loaded into an agar well created within the agar nutrient. The plates are incubated and microorganism growth is allowed to develop. The test sample diffuses through the agar and, if the surfactant in the test sample has an inhibitory effect on the microorganism, a lack of growth halo will be observed around the sample loaded well. This halo is referred to as the zone of inhibition. The larger the zone, the bigger the effect of inhibition. Major suitability limitations for non-antibiotics test samples for this test method are inherent large dilution of active, agar diffusion challenges, and nutrient media incompatibilities (neutralization, precipitation, etc). Although this method has been used in the medical field for antibiotics very successfully for decades, it has low suitability when testing non-antibiotic samples. In a standard agar plating test, test samples containing the surfactant of interest and microorganisms are exposed, diluted several orders of magnitude, and plated onto a nutritive agar that is incubated. After an incubation period appropriate for the species, the microorganism growth pattern is evaluated against appropriate controls. […] The test samples are incubated and then inspected for colorometric and fluorescence change. Test samples that are blue and have low fluorescence indicate no biological activity and incompatibility between the surfactant and the microorganism. Test samples that are pink and have high fluorescence indicate biological activity and compatibility of the surfactant with the microorganism. […]

Bacillus spore blend = experiment: un-dyed EVOO test for germination and growth; settings: 0.2 wt % active surfactant, 1×10^7 CFU/g Bacillus spore blend; 5 days shaking; FIG. 11
Experimental: Replicate test compositions were prepared to evaluate the ability of the alkyl sarcosinate and alkyl betaine surfactant blend to overcome the antagonistic incompatibility between each surfactant individually and the bacterial spores. The formulation for testing comprised 20 wt % sodium lauroyl sarcosinate (30% actives), 32 wt % cetyl betaine (30% actives), 3.5 wt % of a commercially available Bacillus spore blend containing 100×10^9 CFU/g Bacillus spores, 4 wt % potassium nitrate, lactic acid (88% active) to adjust the pH to 5.5-6.0, and the remainder water. The test compositions were prepared by diluting the test formulation in water to 0.3% strength, and adding 2 wt % of 3.3 g/L Nutrient Mix (3 g/L Tryptic Soy broth and 0.3 g/L Yeast Extract). Germination and growth of bacterial spores were visually evaluated using an un-dyed EVOO test. […] Growth and biological activity of the microorganism is evident from haze that develops in the test composition, which can be visually detected. […]
The test compositions were visually evaluated for germination and growth of the bacterial spores using the un-dyed EVOO test described above, except that the test compositions were photographed after 5 days of orbital-mixer shaking at setting “5”.

Bacillus spores = test system: Bacillus spores
[3] = 1.5% active, base formula Example 5, pH 6.5-7.0
[4] = 1.5% active, base formula Example 5, pH 9.0
[5] = 1.5% active, base formula Example 14, pH 9.0
[6] = 1.5% active, base formula Example 14, pH N/A
[7] = 1.0% active, base formula Example 14, pH 5.0
[8] = resazurin assay, FIG. 1, inhibitory if composition with less than 1.0 g/L surfactant remains blue, no fluorescence

OCCOc1ccccc1 [2-phenoxyethanol]
efficacy against pathogenic bacteria and fungi ([1]; 1.5 wt %, even at a pH of 9.0, either base formulation): not sufficient | Bacterial 24 hours (pathogenic bacteria; [3]): <50% | Bacterial 7 days (pathogenic bacteria; [3]): <50% | Bacterial 24 hours (pathogenic bacteria; [4]): 99.4% | Bacterial 7 days (pathogenic bacteria; [4]): >99.6% | Bacterial 24 hours (pathogenic bacteria; [5]): 98.4% | Bacterial 7 days (pathogenic bacteria; [5]): >99.6% | Bacterial 7 days (pathogenic bacteria; [6]): 87.5% | Fungal 24 hours (fungi; [3]): <50% | Fungal 7 days (fungi; [3]): <50% | Fungal 24 hours (fungi; [4]): 29.3% | Fungal 7 days (fungi; [4]): <50% | Fungal 24 hours (fungi; [5]): 75.0% | Fungal 7 days (fungi; [5]): 95.6% | Fungal 7 days (fungi; [6]): <50%

O=C(O)c1ccccc1 [Benzoic Acid]
Result [1, 7]: Pass | Bacterial 24 hours (pathogenic bacteria; [7]): >99.6% | Bacterial 7 days (pathogenic bacteria; [7]): >99.6% | Fungal 24 hours (fungi; [7]): 99.6% | Fungal 7 days (fungi; [7]): 99.6%

C=CCCCCCCCC(=O)N(C)C [STEPOSOL® MET-10U]
compatibility with the beneficial microorganisms [2]: compatible

O.O.O=C([O-])CC(O)(CC(=O)[O-])C(=O)[O-].[Na+].[Na+].[Na+] [sodium citrate dihydrate]
compatibility with the beneficial microorganisms [2]: compatible

O=C([O-])[C@H](O)[C@@H](O)[C@H](O)[C@H](O)CO.[Na+] [sodium gluconate]
compatibility with the beneficial microorganisms [2]: compatible

CCCCCCCCCCCCOS(=O)(=O)[O-].[Na+] [sodium lauryl sulfate]
germination and growth of bacterial spores (Bacillus spore blend): strong inhibition

cocoamidopropyl betaine [CAPB]
compatibility with Bacillus spores (Bacillus spores; [8]): inhibitory

lauramine oxide
germination and growth of bacterial spores (Bacillus spore blend): strong inhibition

lauryl alcohol with 8 moles of ethylene oxide [laureth 8EO]
compatibility with Bacillus spores (Bacillus spores): inhibitory

sodium lauryl ether sulfate 2EO [SLES]
compatibility with Bacillus spores (Bacillus spores; [8]): inhibitory
